In brackets after ≈: the same amount, converted by molar mass. Where two headings read alike, the source gives them in different places.
What was measured:
[1] = system: MCF-7 cell line (human breast adenocarcinoma); test: MTT cytotoxicity assay, MCF-7 cells; format: cell-based; settings: for IC50: Homo sapiens, read-out: IC 50 (μg/mL) MCF-7; for IC50 / IC 50 (μg/mL) MCF-7: MTT; for effect on cell viability in MCF-7 cells: different concentrations, Figure 6, 24 h
Experimental: (§1) FBS, PBS, trypsin, penicillin, streptomycin, DMSO, 3-[4,5-dimethyl thiazol-2-yl]-2,5-diphenyltetrazoliumbromide (MTT), Triton X-100, and RPMI-1640 medium supplemented with 10% heat inactivated FBS were purchased from Sigma-Aldrich. The AGS, HEK293, and MCF7 cell lines were purchased from the National Cell Bank of Iran, Pasteur Institute of Iran, Tehran, Iran.
(§2) In this research, the effects of synthesized compounds on the viability of MCF-7, AGS, and HEK cells were evaluated at various concentrations (0.39–200 μg/mL) utilizing 3-(4,5-dimethylthiazol-2-yl)-2,5-diphenyltetrazolium bromide (MTT) assay. After thawing, the cells were cultured in RPMI 1640 medium containing 10% FBS, penicillin (100 U/mL), and streptomycin ([…]) at 37 °C in a humidified 5% CO2 incubator. The cells were seeded in a 96-well plate at a density of 5000 cells per well (the cells were stained with trypan blue and counted with a hemocytometer). The cells were incubated overnight at 37 °C before cell viability testing. A stock suspension of each of the synthesized compounds at 50 mg/mL in distilled water was prepared. After that, fresh suspensions of different concentrations of the synthesized compounds (2-fold serial dilutions from 0.39 to 200 μg/mL) were made using serial dilutions of the stock suspensions of the synthesized compounds in the RPMI 1640 medium immediately before use. Next, 200 μL of suspension (different concentrations of synthesized compounds) was added to each well of the micropentaplicates. The cells were incubated for 24 and 48 h under the same conditions. Wells without any synthesized compounds served as a negative control. The experiments were performed in pentaplicate for each concentration. To assess cell survival, 100 μL of MTT solution (2 mg/mL in PBS) was added to each well and incubated for 3 h at 37 °C to produce insoluble formazan. Next, 100 μL of DMSO was added to dissolve the formazan crystals, and the absorbance was measured using an Infinite M200 ELISA plate reader (Tecan, Männedorf, Switzerland) at 570 nm, with 630 nm as a reference wave length. The percentage of cell viability was calculated via the formula (A test /A control ) ×100, in which A test is the average absorbance of the treated cells and A control is the average absorbance of the negative control.
(§3) Cytotoxicity assessment of the cell lines were performed in pentaplicate, and the results were computed as mean ±SD. The experimental results were analyzed using one-way ANOVA analysis in SPSS 16.0 for Windows (SPSS Inc., Chicago, IL, USA) and P <0.05 was considered significant. The IC 50 values were calculated by nonlinear regression analysis using Finney probit analysis in SPSS.

[2] = system: HEK293 cells (human embryonic kidney); test: MTT cytotoxicity assay, HEK293 normal cells; format: cell-based; settings: for IC50: Homo sapiens, read-out: IC 50 (μg/mL) HEK293; for cytotoxicity against HEK293 cells compared to the other analogs: pyridine derivatives, Figure 6, 24 h
Experimental: as §1, §2, §3

[3] = system: AGS cells (gastric adenocarcinoma); test: MTT cytotoxicity assay, AGS cells; format: cell-based, human; settings: for IC50: Homo sapiens, AGS cells, MTT
Experimental: as §1
In this research, the effects of synthesized compounds on the viability of MCF-7, AGS, and HEK cells were evaluated at various concentrations (0.39–200 μg/mL) utilizing 3-(4,5-dimethylthiazol-2-yl)-2,5-diphenyltetrazolium bromide (MTT) assay. After thawing, the cells were cultured in RPMI 1640 medium containing 10% FBS, penicillin (100 U/mL), and streptomycin ([…]) at 37 °C in a humidified 5% CO2 incubator. The cells were seeded in a 96-well plate at a density of 5000 cells per well (the cells were stained with trypan blue and counted with a hemocytometer). The cells were incubated overnight at 37 °C before cell viability testing. A stock suspension of each of the synthesized compounds at 50 mg/mL in distilled water was prepared. […] Next, 100 μL of DMSO was added to dissolve the formazan crystals, and the absorbance was measured using an Infinite M200 ELISA plate reader (Tecan, Männedorf, Switzerland) at 570 nm, with 630 nm as a reference wave length. The percentage of cell viability was calculated via the formula (A test /A control ) ×100, in which A test is the average absorbance of the treated cells and A control is the average absorbance of the negative control.
as §3

[4] = MCF7, 24 h, MCF-7 cells, Table 7, 24 h per Figure 6
[5] = HEK293 cells, MTT, Table 7, 24 h per Figure 6
[6] = MCF-7 cells, Table 7, 24 h per Figure 6

Structure (SMILES) | melting point | IC50 [1, 4] | IC50 [2, 5] | IC 50 (μg/mL) MCF-7 [1, 6] | effect on cell viability in MCF-7 cells [1] | cytotoxicity against HEK293 cells compared to the other analogs [2] | further results
CCOC(=O)C1=C(C)NC(=O)NC1c1c(Cl)cccc1Cl (stereo not drawn) [4r] |  |  |  |  |  |  | IC50 ([1]; MCF7, MCF-7 cells, Table 6 (DHPMs 4j, 4r)): 0.17 µg/mL (≈ 0.516 µM); IC50 ([2]; HEK293): > 200 µg/mL; IC50 ([3]; 24 h, read-out: IC 50 (μg/mL) AGS (24 h)): 30 µg/mL (≈ 91.1 µM); IC50 ([3]; 48 h, read-out: IC 50 (μg/mL) AGS (48 h)): 4.97 µg/mL (≈ 15.1 µM); death of AGS cells ([3]; after treatment for 24 and 48 h, different concentrations (Figure 5)): ≥ 50%
N#Cc1c(-c2cccc(Cl)c2)cc(-c2ccccc2)nc1N [5c, 2-Amino-4-(3-chlorophenyl)-6-phenylnicotinonitrile] | 168 to 170 °C | 307 µg/mL (≈ 1000 µM) | > 1000 µg/mL |  |  |  | 
N#Cc1c(-c2c(Cl)cccc2Cl)cc(-c2ccccc2)nc1N [5l, 2-Amino-4-(2,6-dichlorophenyl)-6-phenylnicotinonitrile] | 174 to 176 °C |  |  |  |  |  | 
N#Cc1c(-c2ccc(Cl)cc2Cl)cc(-c2ccccc2)nc1N [5m, 2-Amino-4-(2,4-dichlorophenyl)-6-phenylnicotinonitrile] | 179 to 181 °C | 82 µg/mL (≈ 241 µM) | 259 µg/mL (≈ 760 µM) | 82.90 µg/mL (≈ 244 µM) | considerable decrease in cell viability | less cytotoxic | 
CCOC(=O)C1=C(C)NC(=O)NC1c1cccs1 (stereo not drawn) [4m] |  |  |  | 128.00 µg/mL (≈ 481 µM) |  |  | IC 50 (μg/mL) HEK293 [2, 5]: 146.25 µg/mL (≈ 549 µM)
N#Cc1c(-c2ccccc2F)cc(-c2ccccc2)nc1N [5g] |  | 71.9 µg/mL (≈ 249 µM) | 950 µg/mL (≈ 3280 µM) |  | considerable decrease in cell viability | less cytotoxic | 

Source: paper PMC7751820, “Synthesis, cytotoxic assessment, and molecular docking studies of 2,6-diaryl-substituted pyridine and 3,4- dihydropyrimidine-2(1H)-one scaffolds” (Turkish Journal of Chemistry, 2020)
